Source: patent publication US6787564B2, “Optically active clausenamides, process of the preparation thereof, pharmaceutical composition containing the same and their medical use” (Institute of Materia Medica, Chinese Academy of Medical …, priority 2002, dated 2004)

What was measured:
[1] = tested on: animals with anisodine-induced memory impairment; assay: step-through test, memory impairment induced by anisodine; type: in vivo
Source text: (§1) This invention used one trial avoidance task—step-down and step-through tests and water maze to compare the improving memorial effects of (±), (−) clausenamide. The drugs were given orally once to animals before experiment in step-down and step-through tests. The water maze test lasted for 5 days in succession. The results were expressed as latency and errors number.

[2] = tested on: animals with anisodine-induced memory impairment; assay: memory impairment induced by anisodine in water maze test; type: in vivo
Source text: as §1

[3] = tested on: Human embryonic neural stem cells; assay: colony-form frequency in human embryonic neural stem cells; type: cell-based; conditions: 1 μM; for Colonies, 6 weeks / Colonies, 4 weeks / Colonies, 3 weeks: N 4; for Colonies, 6 weeks: Control(DMSO) 22.25 ± 4.86; for Colonies, 4 weeks: Control(DMSO) 30.33 ± 4.99; for Colonies, 3 weeks: Mean ± SD, Control(DMSO) 43.00 ± 4.97
Method: Human embryonic brain neural stem cells(NSC) were dissociated enzymatically with 0.05% trypsin-0.53 mM EDTA and cultured in the DMEM/F12 medium with N2 supplement (GIBCO), fibroblast growth factor-2 (20 ng/ml), epidermal growth factor (20 ng/ml) at 37° C. The media were changed once every week. The single cell suspension from neurosphere cells of NSC was dissociated by 0.1% trypsin. 2×10^4 cells were seeded in a well of a 96-well plate. After 24 hours, the dose at 1 μM of tested chemical was added in a well. 6 chemicals, (−)neoclausenamide(−), (+)neoclausenamide(+), (−)epineoclausenamide(−), (+)epineoclausenamide(+), (−)cisneoclausenamide(−) and (+)cisneoclausenamide(+), were detected. 4 wells were used each group. The media with tested chemical were changed once every week. The colonies of NSC were formed and counted under a microscopy at 3 weeks, 4 weeks and 6 weeks.

[4] = tested on: dentate gyrus of hippocampus; assay: induction of LTP in hippocampal of rat (population spike amplitude); type: in vivo, SD rats; conditions: I.C.V.; means ± SD
Source text: Adult male SD rats were anesthetized to maintain a surgical level. A stainless steel cannula-recording electrode was placed in DG (dentate gyrus) of hippocampus using a stereotaxic instrument. The combination of cannula-recording electrode was constructed by insulating the outside of the cannula, except at the tip and top. In the top noninsulated area, a stainless steel wire was wrapped around the cannula and connected to the amplifier via an amphenol connector. The four pairs optically active clausenamides shown in table 9 was delivered by I.C.V. Responses were evoked via direct stimulation of the performant path (PP) using a stainless steel bipolar stimulating electrode. Constant current stimulation provided by a stimulator was delivered to the stimulating electrode through a Stimulus Isolation Unit.
The stimulating electrode was adjusted until a characteristic EPSP was observed under constant current. The evoked responses were amplified on a series alternating current preamplifier, using a microcomputer, and then stored for off-line analysis using DataWave software. The current intensity that elicited a 50% maximal response in each animal was determined and used for all subsequent stimulation. To measure treatment effects, responses were evoked once every 30 sec throughout the entire experiment, and population spike amplitude(PSA) were calculated.

[5] = tested on: β-AP (25-35)-treated rats; assay: one trial passive avoidance of β-AP (25-35)-treated rats; type: in vivo; conditions: β-AP-treated + vehicle, n = 8, MEAN ± S.E.M.
A β 25-35 treated rats = assay: Morris water maze, A β 25-35 induced impairment of memory; type: in vivo; conditions: A β 25-35 alone
Source text: Pathological features of Alzheimer's disease (AD) include extensive neuronal loss and the presence of numerous neurofibrillary tangles and senile plaques in the brain. The senile plaques contain amyloid fibrils derived from a 39-43 amino acids peptide referred to as β-amyloid or A β which can produce neurotoxicity. A β 25-35 poccesses the similar neurotoxicity and ability of self-aggregation as A β 1-42. Administrated aggregated A β 25-35 into rat's lateral cerebral ventricle induced memory impairment in Morris water maze.
With increasing of training days, the initial heading angle became small. On the 3th day, the initial heading angle of A β group was larger than control. […] (see Tab.3)
There are four strategies for finding platform in Morris water maze: random, circle, taxis and line. In the beginning of training the search strategies for finding target is mainly circle and random, with the increasing of training, the percentage of the two strategies declined gradually, Beginning from the 3th day, declining speed in control and (−) clausenamide group was faster than A β,(+) clausenamide and piracetam groups.

animals = assay: memory in water maze test; type: in vivo
Source text: as §1

[6] = tested on: dentate gyrus granule cells; assay: basal synaptic transmission / LTP in dentate gyrus of hippocampus in anesthetized rats (population spike amplitude); type: in vivo; conditions: for decrease of PS amplitude compared with that of (−) clausenamide: 60 min
Source text: Drugs or vehicle injection were delivered via cannula in the lateral cerebral ventricle at final concentration of 2×10^−6 mol/L. The population spike (PS) amplitude was employed as an indication of the level of excitation of the granular cell population in the dentate gyrus. To obtain this measurement, an evoked response was generated in the dentate gyrus granule cell layer by stimulating the pp at low freguency (0.033 Hz) with. single square wave pulses of 0.15 ms duration The LTP formation must accord the following creteria: The PS amplitude increased is over 30% and this high PS amplitude can persist for 40 min.

[7] = anisodine + drug 10 mg/kg (Tab 7)
[8] = anisodine + drug 50 mg/kg (Tab 7)

| Compound | frequency of colonies of NSC vs control group at 6 weeks (in words) [3] | Colonies, 6 weeks [3] | Colonies, 4 weeks [3] | Colonies, 3 weeks [3] | PSA (%), 15 min [4] | PSA (%), 30 min [4] | PSA (%), 60 min [4] | also measured |
| --- | --- | --- | --- | --- | --- | --- | --- | --- |
| CN1[C@@H]2CC(OC(=O)[C@@](O)(CO)c3ccccc3)C[C@H]1[C@@H]1O[C@@H]12 (stereo partly drawn) [Anisodine, reference compound] | – | – | – | – | – | – | – | Error number ([1]; anisodine 10 mg/kg alone, 0.9% Nacl 2.0 ± 3.8 (Tab 7)): 14.1 ± 8.9; Latencies ([1]; anisodine 10 mg/kg alone, 0.9% Nacl 152.1 ± 64.2, N = 10 (Tab 7)): 35.8 ± 76.4 s; Errors number ([2]; anisodine group alone, 10 animals): 15.9 ± 11.3 |
| CN1C(=O)[C@H](O)[C@H]([C@@H](O)c2ccccc2)[C@@H]1c1ccccc1 [(+)epineoclausenamide, 3R4S5R6R(+)epineoclausen amide] | not any difference | 26.00 ± 2.94 | 38.50 ± 5.02 | 49.75 ± 10.26 | – | – | – | – |
| CN1C(=O)[C@@H](O)[C@H]([C@@H](O)c2ccccc2)[C@H]1c1ccccc1 [(+)cisclausenamide, 3S4S5S6R (+)cisclausenamide] | – | – | – | – | 87.3 ± 4.4% | 102.9 ± 5.9% | 122.5 ± 14.5% | – |
| CN1C(=O)[C@@H](O)[C@@H]([C@@H](O)c2ccccc2)[C@@H]1c1ccccc1 [(−)epiclausenamide, 3S4R5R6R (−)epiclausenamide] | – | – | – | – | 97.8 ± 21.7% | 91.2 ± 22.5% | 117.3 ± 22.5% | – |
| CN1C(=O)[C@H](O)[C@@H]([C@H](O)c2ccccc2)[C@@H]1c1ccccc1 [(−)cisclausenamide, 3R4R5R6S (−)cisclausenamide] | – | – | – | – | 126.2 ± 2.3% | 141.2 ± 8.6% | 205.4 ± 24.7% | – |
| A β 25-35: β-amyloid fragment with neurotoxicity and self-aggregation like A β 1-42; icv injection induces memory impairment (GSNKGAIIGLM; Amyloid-beta protein 42; UniProt P05067 696-706, looked up, fragment) | – | – | – | – | – | – | – | Number of error, Acquisition ([5]; sham-operated + vehicle 0.3 ± 0.12): 0.9 ± 0.33; Number of error, Training ([5]; sham-operated + vehicle 1.6 ± 0.42): 2.6 ± 0.71; initial heading angle, training day 5 (A β 25-35 treated rats; control 15.4 ± 20.4): 46.7 ± 19.4; initial heading angle, training day 4 (A β 25-35 treated rats; control 29.6 ± 10.7): 60.6 ± 23.8; initial heading angle, training day 3 (A β 25-35 treated rats; control 47.3 ± 15.1): 73.6 ± 20.3; initial heading angle, training day 2 (A β 25-35 treated rats; control 76.8 ± 29.8): 98.7 ± 30.4; initial heading angle, training day 1 (A β 25-35 treated rats; control 93.6 ± 34.6): 106.3 ± 29.8 |
| Racemic clausenamide [(±) clausenamide, reference compound] | – | – | – | – | – | – | – | Lalencies reaching platform, 3rd day (animals; 10 mg/kg): 23.9 ± 22.6 s; Lalencies reaching platform, 4th day (animals; 10 mg/kg): 17.1 ± 14.3 s; Lalencies reaching platform, Second day (animals; 10 mg/kg): 35.8 ± 35.2 s; Lalencies reaching platform, 3rd day (animals; 50 mg/kg): 25.7 ± 13.8 s; Lalencies reaching platform, 4th day (animals; 50 mg/kg): 14.6 ± 10.4 s; Lalencies reaching platform, Second day (animals; 50 mg/kg): 36.6 ± 37.0 s; Error number [1, 7]: 11.3 ± 21.5; Latencies [1, 7]: 43.0 ± 65.8 s; Error number [1, 8]: 14.4 ± 12.3; Latencies [1, 8]: 79.9 ± 63.6 s; effect on PS amplitude (in words) ([6]; 2 μM to 10 μM): inhibitory effect on PS amplitude; decrease of PS amplitude compared with that of (−) clausenamide ([6]; first of the two concentrations (2 μM)): 44%; decrease of PS amplitude compared with that of (−) clausenamide ([6]; second of the two concentrations (10 μM)): 55%; LTP formation (PS amplitude increase over 30% persisting 40 min) ([6]; (−) at 2×10^−6 mol/L, (±) up to 5 times that): could not induce LTP; Errors number ([2]; anisodine + drug 10 mg/kg): 16.6 ± 23.9; Errors number ([2]; anisodine + drug 100 mg/kg): 9.11 ± 3.8 |
| CN1C(=O)[C@@H](O)[C@@H]([C@H](O)c2ccccc2)[C@H]1c1ccccc1 [(−)epineoclausenamide, 3S4R5S6S(−)epineoclausenamide] | significantly difference | 32.50 ± 7.05 | 36.75 ± 7.59 | 58.00 ± 13.02 | – | – | – | – |
| CN1C(=O)[C@@H](O)[C@H]([C@H](O)c2ccccc2)[C@@H]1c1ccccc1 [(−)cisneoclausenamide, 3S4S5R6S (−)cisneoclausenamide] | significantly difference | 33.50 ± 4.20 | 35.25 ± 7.46 | 49.50 ± 5.43 | 94.1 ± 6.7% | 98.2 ± 6.6% | 94.9% | – |
| CN1C(=O)[C@H](O)[C@H]([C@H](O)c2ccccc2)[C@H]1c1ccccc1 [(+)epiclausenamide, 3R4S5S6S (+)epiclausenamide] | – | – | – | – | 136.0 ± 22.8% | 147.5 ± 15.0% | 207.8 ± 12.8% | – |
| CN1C(=O)[C@H](O)[C@@H]([C@@H](O)c2ccccc2)[C@H]1c1ccccc1 [(+)cisneoclausenamide, 3R4R5S6R (+)cisneoclausenamide] | not any difference | 24.00 ± 4.69 | 42.50 ± 10.01 | 47.00 ± 9.03 | 135.0 ± 12.9% | 150.9 ± 19.9% | 192.3 ± 22.4% | – |
